According to the supplement of paper PMC9938120:

How the values were obtained:
Assay in all cases: drug sensitivity score (DSS3, normalised partial AUC of % inhibition dose-response) (DSS (score)); higher = more sensitive (stronger inhibition of viability); extreme values may be limits of the assay
Settings in all cases: 72 h; library: FO5A; assay format: 2D, 384-well, CellTiter-Glo
FMOC22 = system: FMOC22 (patient-derived mucinous ovarian cancer cells)
Summary of the method: (§1)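 Early-passage (under 10) patient-derived ovarian cancer cells were dispensed onto 384-well flat clear-bottom plates pre-plated with compounds at five concentrations spanning a 10,000-fold range, then incubated 72 h at 37 °C, 5% CO2. Viability was read with CellTiter-Glo, and the data were processed in Breeze. The drug sensitivity score is a partial area under the percent-inhibition dose-response curve divided by the log of the upper asymptote, with higher values meaning greater sensitivity.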

FMOC24 = system: FMOC24 (patient-derived high-grade serous ovarian cancer cells)
Summary of the method: as §1

FMOC14 = system: FMOC14 (patient-derived high-grade serous ovarian cancer cells)
Summary of the method: as §1

FMOC06 = system: FMOC06 (patient-derived mucinous ovarian cancer cells)
Summary of the method: as §1

FMOC09 = system: FMOC09 (patient-derived high-grade serous ovarian cancer cells)
Summary of the method: as §1

FMOC25_2 = system: FMOC25_2 (patient-derived low-grade serous ovarian cancer cells)
Summary of the method: as §1

FMOC02_2 = system: FMOC02_2 (patient-derived low-grade serous ovarian cancer cells)
Summary of the method: as §1

FMOC02_3 = system: FMOC02_3 (patient-derived low-grade serous ovarian cancer cells)
Summary of the method: as §1

FMOC03 = system: FMOC03 (patient-derived mucinous ovarian cancer cells)
Summary of the method: as §1

| Structure (SMILES) | drug sensitivity score (FMOC22) | drug sensitivity score (FMOC24) | drug sensitivity score (FMOC14) | drug sensitivity score (FMOC06) | drug sensitivity score (FMOC09) | drug sensitivity score (FMOC25_2) | drug sensitivity score (FMOC02_2) | drug sensitivity score (FMOC02_3) | drug sensitivity score (FMOC03) |
| --- | --- | --- | --- | --- | --- | --- | --- | --- | --- |
| Cc1sc2c(c1C)C(c1ccc(Cl)cc1)=N[C@@H](CC(=O)Nc1ccc(O)cc1)c1nnc(C)n1-2 [Birabresib] | 6.7 | 7.65 | 1.1 | 5.1 | 3.6 | 8.5 | 13.5 | 18.5 | 5.5 |
| CN(C)CC#Cc1ccc(OCCCc2sc(N3CCc4cccc(C(=O)Nc5nc6ccccc6s5)c4C3)nc2C(=O)O)c(F)c1 | 13.5 | 36.8 | 21.3 | 25.5 | 9.7 | 33.4 | 27.6 | 34 | 20.7 |
| CCN(CC)CCNC(=O)c1c(C)[nH]c(/C=C2\C(=O)Nc3ccc(-c4csc(-c5ccccc5)n4)cc32)c1C [Amcasertib] | 2.7 | 8.9 | 0.1 | 0.5 | 0.3 | 0.1 | 1.6 | 0 | 1.2 |
| C=CC(=O)N1CC/C(=C\c2ccc(F)c([N+](=O)[O-])c2)C(=O)/C(=C/c2ccc(F)c([N+](=O)[O-])c2)C1 [VLX1570] | 10.7 | 15.4 | 14.8 | 18.2 | 23 | 14.7 | 22.3 | 25 | 15.2 |
| CCN1C(=O)CNc2ncc(-c3ccc(-c4nc[nH]n4)nc3C)nc21 [CC-115] | 6.3 | 6.2 | 8.9 | 10.9 | 6.7 | 16 | 14.2 | 9.5 | 8 |
| CC[C@@H](C(=O)[C@@H](C)[C@@H](O)[C@H](C)[C@@H]1O[C@@H]([C@@H](CC)C(=O)O)CC[C@@H]1C)[C@H]1O[C@]2(C=C[C@@H](O)[C@]3(CC[C@@](C)([C@H]4CC[C@](O)(CC)[C@H](C)O4)O3)O2)[C@H](C)C[C@@H]1C [Salinomycin] | 10.6 | 26.1 | 23.3 | 16.6 | 16.4 | 16.5 | 15.4 | 1.1 | 12.5 |
| CC1(C)OCCn2c1nc1c(N3CCOCC3)nc(-c3cnc(N)nc3)nc12 [GDC-0084] | 7.4 | 7.5 | 9.2 | 10.9 | 9.6 | 16.2 | 18.1 | 18.5 | 10.5 |
| COc1cc2c(cc1OC(C)C)[C@H](c1ccc(Cl)cc1)N(c1ccc(N(C)C[C@H]3CC[C@H](N4CCN(C)C(=O)C4)CC3)cc1)C(=O)C2 [NVP-CGM097] | 6.9 | 8.6 | 6.3 | 5.5 | 5.9 | 13 | 12.2 | 18 | 5.9 |
| CC(C)(C)c1cc(NC(=O)Nc2ccc(Oc3ccnc4[nH]c(=O)cnc34)cc2F)n(-c2ccccc2)n1 | 3.8 | 1.6 | 0.1 | 3.6 | 3 | 17.8 | 0.2 | 7.1 | 5.3 |
| NC(=O)/C(=C/n1cnc(-c2cc(C(F)(F)F)cc(C(F)(F)F)c2)n1)c1cncnc1 [Eltanexor] | 16.5 | 23.7 | 12.4 | 23 | 13.3 | 23 | 16.2 | 24.5 | 12.5 |
| Nc1cc(F)ccc1NC(=O)c1ccc(CNC(=O)/C=C/c2cccnc2)cc1 [Tucidinostat] | 4.4 | 9 | 7.4 | 8.1 | 0.8 | 4.3 | 6.2 | 5.5 | 7.7 |
| CC(C)C[C@H](NC(=O)CNC(=O)c1cc(Cl)ccc1Cl)B(O)O [Ixazomib] | 16.6 | 16.8 | 15.3 | 12.1 | 6.8 | 14.5 | 14.3 | 6 | 15.1 |
| CC(=O)c1cc2c(o1)C(=O)c1ccccc1C2=O [Napabucasin] | 18.5 | 17.5 | 18.2 | 14.7 | 19.2 | 15 | 18.3 | 17.9 | 18.2 |
| CC1(C)CC[C@]2(NC(=O)C(C)(F)F)CC[C@]3(C)[C@H](C(=O)C=C4[C@@]5(C)C=C(C#N)C(=O)C(C)(C)[C@@H]5CC[C@]43C)[C@@H]2C1 [Omaveloxolone] | 15.9 | 9.7 | 11.6 | 15.8 | 14 | 13.9 | 9.3 | 10 | 18.7 |
| CNC(=O)c1cccc(-c2ccc3c(N4CCOC[C@@H]4C)nc(N4CCOC[C@@H]4C)nc3n2)c1 [Vistusertib] | 9.7 | 8.35 | 12.6 | 14.8 | 8.9 | 18.2 | 20.9 | 21.6 | 13.1 |
| CN1CCN(C2CCC(n3cc(-c4ccc(Oc5ccccc5)cc4)c4c(N)ncnc43)CC2)CC1 (stereo unspecified) | 5.5 | 9.1 | 7.3 | 8.3 | 19.1 | 9.9 | 19.8 | 20 | 9.1 |
| CO[C@H]1CC[C@H](N2C(=O)CNc3ncc(-c4ccc(C(C)(C)O)nc4)nc32)CC1 [CC-223] | 3 | 2.4 | 3.5 | 5.1 | 3.5 | 8.6 | 8.6 | 9.2 | 4 |

| Structure (SMILES) | drug sensitivity score (FMOC22) | drug sensitivity score (FMOC24) | drug sensitivity score (FMOC14) | drug sensitivity score (FMOC06) | drug sensitivity score (FMOC09) | drug sensitivity score (FMOC25_2) | drug sensitivity score (FMOC02_2) | drug sensitivity score (FMOC02_3) | drug sensitivity score (FMOC03) |
| --- | --- | --- | --- | --- | --- | --- | --- | --- | --- |
| C=C1C[C@@H]2CC[C@@]34C[C@H]5O[C@H]6[C@@H](O3)[C@H]3O[C@H](CC[C@@H]3O[C@H]6[C@H]5O4)CC(=O)C[C@@H]3[C@@H](OC)[C@@H](C[C@H](O)CN)O[C@H]3C[C@H]3O[C@@H](CC[C@@H]1O2)C[C@@H](C)C3=C [Eribulin] | 15.5 | 0.6 | 0 | 12.1 | 13.1 | 15.1 | 14.9 | 19.2 | 18 |
| O=C1CCc2c(Oc3ccc4c(c3)[C@@H]3[C@H](O4)[C@H]3c3nc4cc(C(F)(F)F)ccc4[nH]3)ccnc2N1 [BGB-283] | 3.7 | 0.9 | 1 | 4.8 | 4.9 | 5.8 | 7.4 | 6.8 | 4.5 |
| COc1cccc2c1C(=O)c1c(O)c3c(c(O)c1C2=O)C[C@@](O)(C(=O)CO)C[C@@H]3O[C@H]1C[C@H](N)[C@@H](O)[C@H](C)O1 [Epirubicin] | 5.7 | 4.8 | 3.8 | 4.2 | 5.2 | 8.2 | 3.9 | 7 | 4.3 |
| CCNC(=O)C[C@@H]1N=C(c2ccc(Cl)cc2)c2cc(OC)ccc2-n2c(C)nnc21 [Molibresib] | 3.1 | 5 | 1.7 | 3.6 | 2.1 | 5.6 | 6.9 | 10.2 | 3.4 |
| C[C@H]1O[C@@H](O[C@H]2[C@@H](O)C[C@H](O[C@H]3[C@@H](O)C[C@H](O[C@H]4CC[C@@]5(C)[C@H](CC[C@@H]6[C@@H]5C[C@@H](O)[C@]5(C)[C@@H](C7=CC(=O)OC7)CC[C@]65O)C4)O[C@@H]3C)O[C@@H]2C)C[C@H](O)[C@@H]1O [Digoxin] | 9.7 | 17.1 | 10.3 | 10.7 | 14.3 | 18.3 | 11.1 | 14.4 | 9.6 |
| Cc1sc2c(c1C)C(c1ccc(Cl)cc1)=N[C@@H](CC(=O)Nc1ccc(OCCOCCOCCOCCNc3cccc4c3C(=O)N(C3CCC(=O)NC3=O)C4=O)cc1)c1nnc(C)n1-2 (stereo partly specified) [ARV-825] | 3.6 | 6 | 11.4 | 14.9 | 8.3 | 17.1 | 7.1 | 13 | 4 |
| Cc1[nH]nc(C(F)(F)F)c1Cc1sc2c(c1C(=O)N1C[C@](C)(O)CO1)c(=O)n(C)c(=O)n2C(C)C [AZD3965] | 0 | 1.5 | 0 | 0 | 0 | 0 | 0 | 0.8 | 0 |
| Cn1c(Nc2ccc(C(F)(F)F)cc2)nc2cc(Oc3ccnc(-c4ncc(C(F)(F)F)[nH]4)c3)ccc21 [NVP-RAF265] | 1.6 | 2 | 1.6 | 0.8 | 0 | 6.6 | 8 | 12.7 | 2 |
| COc1ccc2[nH]cc(/C=C3\C(=O)Nc4ccc(NC(=O)CCN5CCCCC5)cc43)c2c1 | 6.1 | 12.7 | 5.1 | 6.4 | 5.4 | 8.6 | 12.7 | 10.8 | 7.6 |
| CCNCCS(=O)(=O)NC[C@@]1(c2ccccc2)SC(NC(=O)C(C)(C)C)=NN1C(=O)C(C)(C)C [Litronesib] | 9.2 | 0 | 0 | 0.7 | 6.8 | 13.5 | 4.9 | 11.6 | 7.9 |
| Cc1sc2c(c1C)C(c1ccc(Cl)cc1)=N[C@@H](CC(=O)NCCCCNC(=O)COc1cccc3c1C(=O)N(C1CCC(=O)NC1=O)C3=O)c1nnc(C)n1-2 (stereo partly specified) [dBET1] | 3.8 | 0.2 | 8.9 | 12.9 | 4.5 | 0.3 | 8.8 | 8.6 | 4.5 |
| Cc1c(-c2ccc(N3CCc4cccc(C(=O)Nc5nc6ccccc6s5)c4C3)nc2C(=O)O)cnn1CC12CC3CC(CC(C3)C1)C2 | 5.7 | 23 | 8.8 | 16.8 | 3.1 | 24 | 14.5 | 26.7 | 12.5 |
| CC(C)n1nc(-c2ccc3oc(N)nc3c2)c2c(N)ncnc21 [Sapanisertib] | 11.7 | 7.7 | 9.5 | 12.9 | 8.7 | 18.1 | 18.5 | 20.3 | 13.7 |
| Cc1noc2c1-c1ccccc1C(c1ccc(Cl)cc1)=N[C@H]2CC(N)=O [CPI-0610] | 3.3 | 6.4 | 1.5 | 0.6 | 4.3 | 4 | 7.8 | 12.5 | 4.3 |
| Nc1nc2cc(-c3ccc4ncc(C(=O)N5CCOCC5)n4c3)ccc2o1 [Serabelisib] | 2.1 | 0 | 0.1 | 3.5 | 1.3 | 6.7 | 6.6 | 7.2 | 3 |
| CCS(=O)(=O)Nc1ccc(Oc2ccc(F)cc2F)c(-c2cn(C)c(=O)c3[nH]ccc23)c1 [Mivebresib] | 11.7 | 17.6 | 11.7 | 16.6 | 10.9 | 16.4 | 20.3 | 30.3 | 13.9 |
| CN[C@@H](C)C(=O)N[C@H](C(=O)N1CCC[C@H]1c1nc(C(=O)c2ccc(F)cc2)cs1)C1CCCCC1 [NVP-LCL161] | 0.6 | 32.1 | 7.1 | 10.9 | 0 | 9.8 | 1.7 | 1.9 | 3.9 |
